# Data reported in patent US9169209B2, “Compounds and compositions for the inhibition of NAMPT” (FORMA TM, LLC, priority 2011, dated 2015).
# Where two headings read alike, the source gives them in different places.
# What was measured:
# [1] = biological target: NAMPT (Homo sapiens (Human), UniProt P43490); experiment: Biochemical Inhibition Assay (NAMPT enzymatic reaction, NMN quantified by mass spectrometry); conditions: recombinant His-tagged NAMPT, 33 nM; 1 μM NAM; read-out: Biochem IC50
# In short: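 His-tagged human NAMPT from E. coli was preincubated 15 min at RT with compound in Hepes pH 7.5/MgCl2 buffer. Reaction ran 30 min at RT with 1 μM NAM, 100 μM PRPP and 2.5 mM ATP, then was quenched with formic acid. NMN was measured by RapidFire MS, normalized to L-cystathionine, and IC50 derived from % inhibition.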
# [2] = system: A2780 cells; experiment: In-Vitro Cell Proliferation Assay (SRB, 72 hours); format: cell-based; conditions: Homo sapiens, A2780, 72 h, read-out: A2780 IC50
# In short: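 Plated cells exposed to serially diluted compound (0.1% DMSO final) for 72 h at 37 °C, 5% CO2. Viability by SRB staining after TCA fixation, absorbance 570 nm, media-only background subtracted; % inhibition relative to DMSO-treated cells, interpolated between bracketing concentrations.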
# [3] = A2780 cells, 72 hours, sulforhodamine B
# NAMPT, sequence (P43490 whole entry): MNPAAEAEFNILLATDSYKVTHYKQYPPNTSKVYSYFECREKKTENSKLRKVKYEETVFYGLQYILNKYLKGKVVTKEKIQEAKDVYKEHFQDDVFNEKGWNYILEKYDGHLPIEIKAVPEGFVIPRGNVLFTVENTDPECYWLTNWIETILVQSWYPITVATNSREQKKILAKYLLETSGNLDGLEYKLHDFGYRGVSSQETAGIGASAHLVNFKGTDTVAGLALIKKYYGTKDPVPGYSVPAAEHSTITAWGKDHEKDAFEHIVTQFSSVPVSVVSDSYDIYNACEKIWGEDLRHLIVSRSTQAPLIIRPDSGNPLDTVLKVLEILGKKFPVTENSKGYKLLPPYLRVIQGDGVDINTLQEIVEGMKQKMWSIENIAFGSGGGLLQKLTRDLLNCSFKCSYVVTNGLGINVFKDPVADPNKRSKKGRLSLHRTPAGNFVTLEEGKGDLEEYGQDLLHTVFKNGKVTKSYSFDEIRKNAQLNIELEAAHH
Structure (SMILES),IC50 [1],"IC50 [2, 3]",IC50 [2]
COc1ccc(S(=O)(=O)c2ccc(NC(=O)/C=C/c3cccnc3)cc2)cc1Cl [(2E)-N-{4-[(3-chloro-4-methoxybenzene)sulfonyl]phenyl}-3-(pyridin-3-yl)prop-2-enamide],5.8 nM,123 nM,
Cc1ccc(S(=O)(=O)c2ccc(NC(=O)/C=C/c3cccnc3)cc2)cc1Cl [(2E)-N-{4-[(3-chloro-4-methylbenzene)sulfonyl]phenyl}-3-(pyridin-3-yl)prop-2-enamide],8.6 nM,199 nM,
CCCOc1ccc(S(=O)(=O)c2ccc(NC(=O)/C=C/c3cccnc3)cc2)cc1Cl [(2E)-N-{4-[(3-chloro-4-propoxybenzene)sulfonyl]phenyl}-3-(pyridin-3-yl)prop-2-enamide],5.6 nM,100 to 1000 nM,
O=C(/C=C/c1cccnc1)Nc1ccc(S(=O)(=O)c2cc(F)cc(Cl)c2)cc1 [(2E)-N-{4-[(3-chloro-5-fluorobenzene)sulfonyl]phenyl}-3-(pyridin-3-yl)prop-2-enamide],124 nM,179 nM,
COc1cc(Cl)cc(S(=O)(=O)c2ccc(NC(=O)/C=C/c3cccnc3)cc2)c1 [(2E)-N-{4-[(3-chloro-5-methoxybenzene)sulfonyl]phenyl}-3-(pyridin-3-yl)prop-2-enamide],22 nM,100 nM,
O=C(/C=C/c1cccnc1)Nc1ccc(S(=O)(=O)c2cccc(Cl)c2)cc1 [(2E)-N-{4-[(3-chlorobenzene)sulfonyl]phenyl}-3-(pyridin-3-yl)prop-2-enamide],122 nM,,182 nM
CCS(=O)(=O)Nc1cccc(S(=O)(=O)c2ccc(NC(=O)/C=C/c3cccnc3)cc2)c1 [(2E)-N-{4-[(3-ethanesulfonamidobenzene)sulfonyl]phenyl}-3-(pyridin-3-yl)prop-2-enamide],8.1 nM,100 to 1000 nM,
CCOc1cccc(S(=O)(=O)c2ccc(NC(=O)/C=C/c3cccnc3)cc2)c1 [(2E)-N-{4-[(3-ethoxybenzene)sulfonyl]phenyl}-3-(pyridin-3-yl)prop-2-enamide],57.2 nM,91.9 nM,
CCc1cccc(S(=O)(=O)c2ccc(NC(=O)/C=C/c3cccnc3)cc2)c1 [(2E)-N-{4-[(3-ethylbenzene)sulfonyl]phenyl}-3-(pyridin-3-yl)prop-2-enamide],3.3 nM,30.5 nM,
COc1ccc(S(=O)(=O)c2ccc(NC(=O)/C=C/c3cccnc3)cc2)cc1F [(2E)-N-{4-[(3-fluoro-4-methoxybenzene)sulfonyl]phenyl}-3-(pyridin-3-yl)prop-2-enamide],11.5 nM,103 nM,
Cc1ccc(S(=O)(=O)c2ccc(NC(=O)/C=C/c3cccnc3)cc2)cc1F [(2E)-N-{4-[(3-fluoro-4-methylbenzene)sulfonyl]phenyl}-3-(pyridin-3-yl)prop-2-enamide],27.6 nM,196 nM,
CCCOc1ccc(S(=O)(=O)c2ccc(NC(=O)/C=C/c3cccnc3)cc2)cc1F [(2E)-N-{4-[(3-fluoro-4-propoxybenzene)sulfonyl]phenyl}-3-(pyridin-3-yl)prop-2-enamide],40.9 nM,100 to 1000 nM,
COc1cc(F)cc(S(=O)(=O)c2ccc(NC(=O)/C=C/c3cccnc3)cc2)c1 [(2E)-N-{4-[(3-fluoro-5-methoxybenzene)sulfonyl]phenyl}-3-(pyridin-3-yl)prop-2-enamide],3.2 nM,68.1 nM,
Cc1cc(F)cc(S(=O)(=O)c2ccc(NC(=O)/C=C/c3cccnc3)cc2)c1 [(2E)-N-{4-[(3-fluoro-5-methylbenzene)sulfonyl]phenyl}-3-(pyridin-3-yl)prop-2-enamide],17.5 nM,108 nM,
O=C(/C=C/c1cccnc1)Nc1ccc(S(=O)(=O)c2cccc(F)c2)cc1 [(2E)-N-{4-[(3-fluorobenzene)sulfonyl]phenyl}-3-(pyridin-3-yl)prop-2-enamide],66.4 nM,103 nM,
CS(=O)(=O)Nc1cccc(S(=O)(=O)c2ccc(NC(=O)/C=C/c3cccnc3)cc2)c1 [(2E)-N-{4-[(3-methanesulfonamidobenzene)sulfonyl]phenyl}-3-(pyridin-3-yl)prop-2-enamide],7.5 nM,100 to 1000 nM,
CS(=O)(=O)c1cccc(S(=O)(=O)c2ccc(NC(=O)/C=C/c3cccnc3)cc2)c1 [(2E)-N-{4-[(3-methanesulfonylbenzene)sulfonyl]phenyl}-3-(pyridin-3-yl)prop-2-enamide],14.3 nM,100 to 1000 nM,
COc1cccc(S(=O)(=O)c2ccc(NC(=O)/C=C/c3cccnc3)cc2)c1 [(2E)-N-{4-[(3-methoxybenzene)sulfonyl]phenyl}-3-(pyridin-3-yl)prop-2-enamide],85.7 nM,114 nM,
O=C(/C=C/c1cccnc1)Nc1ccc(S(=O)(=O)c2cccc(-c3ccccc3)c2)cc1 [(2E)-N-{4-[(3-phenylbenzene)sulfonyl]phenyl}-3-(pyridin-3-yl)prop-2-enamide],25.4 nM,100 to 1000 nM,
CCCOc1cccc(S(=O)(=O)c2ccc(NC(=O)/C=C/c3cccnc3)cc2)c1 [(2E)-N-{4-[(3-propoxybenzene)sulfonyl]phenyl}-3-(pyridin-3-yl)prop-2-enamide],21.6 nM,86.8 nM,
CCOc1cc(Cl)ccc1S(=O)(=O)c1ccc(NC(=O)/C=C/c2cccnc2)cc1 [(2E)-N-{4-[(4-chloro-2-ethoxybenzene)sulfonyl]phenyl}-3-(pyridin-3-yl)prop-2-enamide],4.2 nM,9.68 nM,
COc1cc(Cl)ccc1S(=O)(=O)c1ccc(NC(=O)/C=C/c2cccnc2)cc1 [(2E)-N-{4-[(4-chloro-2-methoxybenzene)sulfonyl]phenyl}-3-(pyridin-3-yl)prop-2-enamide],7.3 nM,109 nM,
COc1cc(S(=O)(=O)c2ccc(NC(=O)/C=C/c3cccnc3)cc2)ccc1Cl [(2E)-N-{4-[(4-chloro-3-methoxybenzene)sulfonyl]phenyl}-3-(pyridin-3-yl)prop-2-enamide],26.3 nM,72 nM,
O=C(/C=C/c1cccnc1)Nc1ccc(S(=O)(=O)c2ccc(Cl)cc2)cc1 [(2E)-N-{4-[(4-chlorobenzene)sulfonyl]phenyl}-3-(pyridin-3-yl)prop-2-enamide],43.5 nM,100 to 1000 nM,
CCOc1ccc(S(=O)(=O)c2ccc(NC(=O)/C=C/c3cccnc3)cc2)cc1F [(2E)-N-{4-[(4-ethoxy-3-fluorobenzene)sulfonyl]phenyl}-3-(pyridin-3-yl)prop-2-enamide],34.1 nM,175 nM,
CCOc1ccc(S(=O)(=O)c2ccc(NC(=O)/C=C/c3cccnc3)cc2)cc1 [(2E)-N-{4-[(4-ethoxybenzene)sulfonyl]phenyl}-3-(pyridin-3-yl)prop-2-enamide],27.4 nM,100 to 1000 nM,
Cc1cc(S(=O)(=O)c2ccc(NC(=O)/C=C/c3cccnc3)cc2)ccc1F [(2E)-N-{4-[(4-fluoro-3-methylbenzene)sulfonyl]phenyl}-3-(pyridin-3-yl)prop-2-enamide],21.9 nM,100 to 1000 nM,
O=C(/C=C/c1cccnc1)Nc1ccc(S(=O)(=O)c2ccc(F)cc2)cc1 [(2E)-N-{4-[(4-fluorobenzene)sulfonyl]phenyl}-3-(pyridin-3-yl)prop-2-enamide],2 nM,158 nM,
CS(=O)(=O)c1ccc(S(=O)(=O)c2ccc(NC(=O)/C=C/c3cccnc3)cc2)cc1 [(2E)-N-{4-[(4-methanesulfonylbenzene)sulfonyl]phenyl}-3-(pyridin-3-yl)prop-2-enamide],11.4 nM,100 to 1000 nM,
